Where a name gives a salt, the structure may show the parent alone.
Key:
[1] = test system: Klebsiella pneumoniae expressing KPC-1 (CL6569); assay: Antibiotic activity: growth inhibitory concentration (OD600), Klebsiella pneumoniae CL6569; format: cell-based; conditions: lowest concentration inhibiting 95% of bacterial growth, in the presence of β lactamase inhibitor Relebactam 4 μg/mL, 35±2° C. for 22 hours, tested range 100 μM to 0.098 μM
Experimental: (§1) Antibiotic Activity: Determination of Growth Inhibitory Concentration
(§2) The concentrations of compounds required to inhibit the growth of various strains of bacteria were determined in an assay that assessed bacterial growth by measuring optical density at 600 nm (OD600). The bacterial strains tested included the clinical strains Escherichia coli expressing NDM-1 (CLB30016), Klebsiella pneumoniae expressing KPC-1 (CL6569), Acinetobacter baumannii expressing TEM-1, AmpC, and Oxa-24/40 (CL6188) and Pseudomonas aeruginosa expressing AmpC (CL5701). All compounds were tested in the presence of a β lactamase inhibitor (BLi, Relebactam) in 384-well microplates. The clinical strains were stored as frozen single use stocks, thawed and diluted into 1.1× cation-adjusted Mueller-Hinton II broth to achieve approximately 2×10^5 CFU/mL. Test compounds were dissolved in DMSO and diluted 1:50 in the assay, resulting in a final concentration range of 100 μM to 0.098 μM. On the day of the assay, 1 μL of test compound was added to the plate followed by 4 μL of 50 μg/mL BLi in MOPS buffer and 45 μL of diluted bacteria. Plates were centrifuged at 1000 rpm for 30 seconds, shaken at approximately 800 rpm for 1 minute, and incubated at 35±2° C. for 22 hours. The concentration of BLi used in the assay was 4 μg/mL. At the end of the incubation, absorbance at 600 nm was determined using a spectrophotometer. Inhibition was quantitated by identifying the lowest concentration of test compound that was required to inhibit 95% of the growth of the bacteria. The results for Examples 1-126 are reported in Table I, expressed as the concentration of compound that inhibited 95% of bacterial growth (Minimum Inhibitory Threshold Concentration; MITC95).

[2] = test system: Pseudomonas aeruginosa expressing AmpC (CL5701); assay: Antibiotic activity: growth inhibitory concentration (OD600), Pseudomonas aeruginosa CL5701; format: cell-based; conditions: lowest concentration inhibiting 95% of bacterial growth; in the presence of β lactamase inhibitor Relebactam 4 μg/mL; 35±2° C. for 22 hours; tested range 100 μM to 0.098 μM
Experimental: as §1, §2

SMILES | KP_CL6569 MITC95 ([1]; 2,2,2-trifluoroacetate) [µM] | PA_CL5701 MITC95 [2] [µM] | KP_CL6569 MITC95 [1] [µM]
C[n+]1cc(-c2ccc(OCC(C)(O/N=C(\C(=O)N[C@@H]3C(=O)N(OS(=O)(=O)O)C3(C)C)c3csc(N)n3)C(=O)O)cc2)cn1CCCN (single isomer, unassigned) [Example 23A, 2,2,2-trifluoroacetate] | 0.3906 | 3.125 | –
C[n+]1cc(-c2ccc(OC[C@](C)(O/N=C(\C(=O)N[C@@H]3C(=O)N(OS(=O)(=O)O)C3(C)C)c3csc(N)n3)C(=O)O)cc2)cn1CCCN (single isomer, unassigned) [Example 23B, 2,2,2-trifluoroacetate] | – | 25 | 3.125
C[n+]1cc(-c2ccc(OC[C@H](O/N=C(\C(=O)N[C@@H]3C(=O)N(OS(=O)(=O)[O-])C3(C)C)c3csc(N)n3)C(=O)O)cc2F)cn1C[C@@H](O)CN.O=CO (single isomer, unassigned) [Example 43] | – | 3.125 | 0.1953
C[n+]1cc(-c2ccc(OC[C@H](O/N=C(\C(=O)N[C@@H]3C(=O)N(OS(=O)(=O)O)C3(C)C)c3csc(N)n3)C(=O)O)cc2F)cn1CC(N)CN (single isomer, unassigned) [Example 45] | – | 6.25 | 0.3906
C[n+]1cc(-c2ccc(OC[C@H](O/N=C(\C(=O)N[C@@H]3C(=O)N(OS(=O)(=O)O)C3(C)C)c3csc(N)n3)C(=O)O)cc2F)cn1CC(N)CN (single isomer, unassigned) [Example 46] | – | 6.25 | 0.3906
Cn1c(-c2ccc(OC[C@H](O/N=C(\C(=O)N[C@@H]3C(=O)N(OS(=O)(=O)O)C3(C)C)c3csc(N)n3)C(=O)O)cc2)cn(CC(O)CN)c1=N (single isomer, unassigned) [Example 56] | – | 3.125 | 0.3906
C[n+]1cc(-c2ccc(OC(CO/N=C(\C(=O)N[C@@H]3C(=O)N(OS(=O)(=O)[O-])C3(C)C)c3csc(N)n3)C(=O)O)cc2)cn1CCCN (single isomer, unassigned) [Example 85] | – | 40 | 2.5
C[n+]1cc(-c2ccc(CCC(O/N=C(\C(=O)N[C@@H]3C(=O)N(OS(=O)(=O)[O-])C3(C)C)c3csc(N)n3)C(=O)O)cc2)cn1CCCN (single isomer, unassigned) [Example 93] | – | 6.25 | 0.1953
CC1(C)[C@H](NC(=O)/C(=N\O[C@@H](COc2ccc(-c3cn(CCCN)[n+](CC(F)CN)c3)cc2)C(=O)O)c2csc(N)n2)C(=O)N1OS(=O)(=O)[O-] (single isomer, unassigned) [Example 120] | – | 3.125 | 0.1953
CC1[C@H](NC(=O)/C(=N\O[C@@H](COc2ccc(-c3cnn(CCCN)c3)cc2)C(=O)O)c2csc(N)n2)C(=O)N1S(=O)(=O)O (stereo in doubt) [Example 8, (S)-3-(4-(1-(3-aminopropyl)-1H-pyrazol-4-yl)phenoxy)-2-((((Z)-1-(2-aminothiazol-4-yl)-2-(((2R,3S)-2-methyl-4-oxo-1-sulfoazetidin-3-yl)amino)-2-oxoethylidene)amino)oxy)propanoic acid] | – | 25 | 3.125
C[n+]1cc(-c2ccc(OCC(C)(O/N=C(\C(=O)N[C@@H]3C(=O)N(OS(=O)(=O)O)C3(C)C)c3nc(N)sc3Cl)C(=O)O)cc2)cn1CCCN (stereo in doubt) [Example 51A, (S)-3-((Z)-2-(2-Amino-5-chlorothiazol-4-yl)-2-((((R)-1-(4-(1-(3-aminopropyl)-2-methyl-1H-pyrazol-2-ium-4-yl)phenoxy)-2-carboxypropan-2-yl)oxy)imino)acetamido)-2,2-dimethyl-4-oxoazetidin-1-yl sulfate] | – | 3.125 | 0.7813
Cn1c(-c2ccc(OC[C@H](O/N=C(\C(=O)N[C@@H]3C(=O)N(OS(=O)(=O)O)C3(C)C)c3csc(N)n3)C(=O)O)cc2)cn(CCCN)c1=NCCN (stereo in doubt) [Example 57, (S)-3-(4-((Z)-2-((2-aminoethyl)imino)-1-(3-aminopropyl)-3-methyl-2,3-dihydro-1H-imidazol-4-yl)phenoxy)-2-((((Z)-1-(2-aminothiazol-4-yl)-2-(((S)-2,2-dimethyl-4-oxo-1-(sulfooxy)azetidin-3-yl)amino)-2-oxoethylidene)amino)oxy)propanoic acid] | – | 3.125 | 0.1953
CC1(C)[C@H](NC(=O)/C(=N\OC(COc2ccc(C(N)CNC3=NCCN3)cc2)C(=O)O)c2csc(N)n2)C(=O)N1OS(=O)(=O)O (stereo in doubt) [Example 59, (R)-3-(4-((S)-1-amino-2-((4,5-dihydro-1H-imidazol-2-yl)amino)ethyl)phenoxy)-2-((((Z)-1-(2-aminothiazol-4-yl)-2-(((S)-2,2-dimethyl-4-oxo-1-(sulfooxy)azetidin-3-yl)amino)-2-oxoethylidene)amino)oxy)propanoic acid] | – | 12.5 | 3.125
C[n+]1cc(-c2ccc(OC[C@H](O/N=C(\C(=O)N[C@@H]3C(=O)N(OS(=O)(=O)[O-])C3(C)C)c3csc(N)n3)C(=O)O)cc2)cn1CCCN [Example 1, (S)-3-((Z)-2-(2-aminothiazol-4-yl)-2-(((S)-2-(4-(1-(3-ammoniopropyl)-2-methyl-1H-pyrazol-2-ium-4-yl)phenoxy)-1-carboxyethoxy)imino)acetamido)-2,2-dimethyl-4-oxoazetidin-1-yl sulfate 2,2,2-trifluoroacetate] | – | 3.125 | 0.3906
C[n+]1cn(CCCN)cc1-c1ccc(OC[C@H](O/N=C(\C(=O)NC2C(=O)N(OS(=O)(=O)[O-])C2(C)C)c2csc(N)n2)C(=O)O)cc1 (stereo partly drawn) [Example 2, (S)-3-((Z)-2-(2-aminothiazol-4-yl)-2-(((S)-2-(4-(1-(3-ammoniopropyl)-3-methyl-1H-imidazol-3-ium-4-yl)phenoxy)-1-carboxyethoxy)imino)acetamido)-2,2-dimethyl-4-oxoazetidin-1-yl-sulfate] | – | 3.125 | 0.3906
C[n+]1cc(-c2c(F)cc(OC[C@H](O/N=C(\C(=O)N[C@@H]3C(=O)N(OS(=O)(=O)O)C3(C)C)c3csc(N)n3)C(=O)O)cc2F)cn1CCCN.O=C(O)C(F)(F)F [Example 3, (S)-3-((Z)-2-(((S)-2-(4-(1-(3-aminopropyl)-2-methyl-1H-pyrazol-2-ium-4-yl)-3,5-difluorophenoxy)-1-carboxyethoxy)imino)-2-(2-aminothiazol-4-yl)acetamido)-2,2-dimethyl-4-oxoazetidin-1-yl sulfate compound with 2,2,2-trifluoroacetic acid (1:1)] | – | 6.25 | 0.39
C[n+]1cc(-c2ccc(OCCO/N=C(\C(=O)N[C@@H]3C(=O)N(OS(=O)(=O)O)C3(C)C)c3csc(N)n3)cc2)cn1CCCN [Example 4, (S,Z)-3-(2-((2-(4-(1-(3-aminopropyl)-2-methyl-1H-pyrazol-2-ium-4-yl)phenoxy)ethoxy)imino)-2-(2-aminothiazol-4-yl)acetamido)-2,2-dimethyl-4-oxoazetidin-1-yl sulfate] | – | 25 | 1.281
CC1(C)[C@H](NC(=O)/C(=N\OCCOc2ccc(-c3cnn(CCCN)c3)cc2)c2csc(N)n2)C(=O)N1OS(=O)(=O)O [Example 5, (S,Z)-3-(2-((2-(4-(1-(3-aminopropyl)-1H-pyrazol-4-yl)phenoxy)ethoxy)imino)-2-(2-aminothiazol-4-yl)acetamido)-2,2-dimethyl-4-oxoazetidin-1-yl sulfate] | – | 50 | 6.25
C[C@H]1[C@H](NC(=O)/C(=N\O[C@@H](COc2ccc(-c3cnn(CCCN)c3)cc2)C(=O)O)c2csc(N)n2)C(=O)N1S(=O)(=O)O [Example 6, (S)-3-(4-(1-(3-aminopropyl)-1H-pyrazol-4-yl)phenoxy)-2-((((Z)-1-(2-aminothiazol-4-yl)-2-(((2S,3S)-2-methyl-4-oxo-1-sulfoazetidin-3-yl)amino)-2-oxoethylidene)amino)oxy)propanoic acid] | – | 100 | 12.5
C[C@H]1[C@H](NC(=O)/C(=N\O[C@@H](COc2ccc(-c3cn(CCCN)[n+](C)c3)cc2)C(=O)O)c2csc(N)n2)C(=O)N1S(=O)(=O)[O-] [Example 7, (2S,3S)-3-((Z)-2-(((S)-2-(4-(1-(3-aminopropyl)-2-methyl-1H-pyrazol-2-ium-4-yl)phenoxy)-1-carboxyethoxy)imino)-2-(2-aminothiazol-4-yl)acetamido)-2-methyl-4-oxoazetidine-1-sulfonate] | – | 12.5 | 1.563
